The CheMixHub viscosity set

Experiment: xn = mol fraction of the nth substance listed

CNC=O + O
viscosity [mPa·s]
Conditions | 298 K | 298.15 K | 303 K | 303.15 K | 308.15 K | 313.15 K | 318.15 K | 323.15 K
101 kPa, x1 = 0.0328 | 1.05 | – | 0.9456 | – | – | – | – | –
101 kPa, x1 = 0.1 | – | 1.384 | – | 1.219 | 1.083 | 0.9687 | 0.871 | –
101 kPa, x1 = 0.1158 | 1.305 | – | 1.176 | – | – | – | – | –
101 kPa, x1 = 0.1999 | – | 1.754 | – | 1.539 | 1.363 | 1.215 | 1.084 | –
101 kPa, x1 = 0.2341 | 1.573 | – | 1.425 | – | – | – | – | –
101 kPa, x1 = 0.3002 | – | 1.967 | – | 1.728 | 1.532 | 1.366 | 1.222 | –
101 kPa, x1 = 0.4001 | – | – | – | 1.805 | 1.608 | 1.44 | 1.3 | –
101 kPa, x1 = 0.4163 | – | – | 1.625 | – | – | – | – | –
101 kPa, x1 = 0.4998 | – | 2.031 | – | 1.818 | 1.636 | 1.472 | 1.331 | –
101 kPa, x1 = 0.6006 | – | 1.975 | – | 1.772 | 1.59 | 1.437 | 1.304 | –
101 kPa, x1 = 0.6995 | – | 1.902 | – | 1.712 | 1.546 | 1.401 | 1.273 | –
101 kPa, x1 = 0.7334 | 1.658 | – | 1.5 | – | – | – | – | –
101 kPa, x1 = 0.8 | – | 1.836 | – | 1.658 | 1.502 | 1.364 | 1.243 | –
101 kPa, x1 = 0.8997 | – | 1.781 | – | 1.609 | 1.459 | 1.327 | 1.21 | –
101.33 kPa, x1 = 0.0969 | – | – | – | 1.216 | 1.086 | 0.974 | 0.8818 | 0.8012
101.33 kPa, x1 = 0.2015 | – | – | – | 1.529 | 1.36 | 1.219 | 1.098 | 0.9948
101.33 kPa, x1 = 0.2996 | – | – | – | 1.718 | 1.531 | 1.373 | 1.24 | 1.124
101.33 kPa, x1 = 0.4005 | – | – | – | 1.792 | 1.603 | 1.445 | 1.308 | 1.187
101.33 kPa, x1 = 0.4994 | – | – | – | 1.789 | 1.61 | 1.458 | 1.327 | 1.211
101.33 kPa, x1 = 0.5995 | – | – | – | 1.753 | 1.576 | 1.443 | 1.32 | 1.21
101.33 kPa, x1 = 0.6999 | – | – | – | 1.693 | 1.542 | 1.412 | 1.296 | 1.193
101.33 kPa, x1 = 0.7999 | – | – | – | 1.649 | 1.509 | 1.388 | 1.279 | 1.182
101.33 kPa, x1 = 0.9001 | – | – | – | 1.61 | 1.478 | 1.361 | 1.261 | 1.164
